Patent US12649750B2, “Macrocyclic compounds, compositions, and methods of using thereof” (Sionna Therapeutics Inc., priority 2022, dated 2026)

Columns and labels:
NBD1 = biological target: T1, NBD1 (Homo sapiens, UniProt P13569); assay: Aggregation analysis using differential static light scattering (DSLS), thermal stability of NBD1 (ΔTagg); format: binding; conditions: ΔTagg versus DMSO control, NBD1 0.2 mg/ml
T1 construct: Purified recombinant NBD1 was produced using previously described methods; made in house
How it was run: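 Thermal aggregation of purified NBD1 was followed by static light scattering during a 1° C./min ramp to 70° C. Protein was at 0.2 mg/ml with 2 mM ATP at pH7.6. Each compound's Tagg was referenced to DMSO controls.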

CFTR = biological target: T2, CFTR (Homo sapiens, UniProt P13569, DEL508-508); assay: TECC24 AUC fold over DMSO @10 μM, CFTR-mediated transepithelial chloride transport in CF-HBE cells; format: cell-based; conditions: test agent AUC divided by DMSO vehicle AUC, primary CF-HBE cells, ΔF508 homozygous donor, 48 hours incubation
T2 construct: Primary human bronchial epithelial cells from a ΔF508 homozygous CF donor; host or cells: primary human bronchial epithelial cells (CF-HBE), ΔF508 homozygous donor
How it was run: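 ΔF508-homozygous primary bronchial epithelial cells incubated 48 h at 36.5° C with compound (10 μM) in IL-13-containing medium, then TECC24 current-clamp recording in pH 7.4 Hepes saline with benzamil 10 μM, forskolin 10 μM, then CFTR inhibitor-172 20 μM. Equivalent Cl− current AUC between forskolin and inhibitor, expressed as fold over DMSO.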

T2 sequence (P13569 with tags, fused parts or gaps DEL508-508): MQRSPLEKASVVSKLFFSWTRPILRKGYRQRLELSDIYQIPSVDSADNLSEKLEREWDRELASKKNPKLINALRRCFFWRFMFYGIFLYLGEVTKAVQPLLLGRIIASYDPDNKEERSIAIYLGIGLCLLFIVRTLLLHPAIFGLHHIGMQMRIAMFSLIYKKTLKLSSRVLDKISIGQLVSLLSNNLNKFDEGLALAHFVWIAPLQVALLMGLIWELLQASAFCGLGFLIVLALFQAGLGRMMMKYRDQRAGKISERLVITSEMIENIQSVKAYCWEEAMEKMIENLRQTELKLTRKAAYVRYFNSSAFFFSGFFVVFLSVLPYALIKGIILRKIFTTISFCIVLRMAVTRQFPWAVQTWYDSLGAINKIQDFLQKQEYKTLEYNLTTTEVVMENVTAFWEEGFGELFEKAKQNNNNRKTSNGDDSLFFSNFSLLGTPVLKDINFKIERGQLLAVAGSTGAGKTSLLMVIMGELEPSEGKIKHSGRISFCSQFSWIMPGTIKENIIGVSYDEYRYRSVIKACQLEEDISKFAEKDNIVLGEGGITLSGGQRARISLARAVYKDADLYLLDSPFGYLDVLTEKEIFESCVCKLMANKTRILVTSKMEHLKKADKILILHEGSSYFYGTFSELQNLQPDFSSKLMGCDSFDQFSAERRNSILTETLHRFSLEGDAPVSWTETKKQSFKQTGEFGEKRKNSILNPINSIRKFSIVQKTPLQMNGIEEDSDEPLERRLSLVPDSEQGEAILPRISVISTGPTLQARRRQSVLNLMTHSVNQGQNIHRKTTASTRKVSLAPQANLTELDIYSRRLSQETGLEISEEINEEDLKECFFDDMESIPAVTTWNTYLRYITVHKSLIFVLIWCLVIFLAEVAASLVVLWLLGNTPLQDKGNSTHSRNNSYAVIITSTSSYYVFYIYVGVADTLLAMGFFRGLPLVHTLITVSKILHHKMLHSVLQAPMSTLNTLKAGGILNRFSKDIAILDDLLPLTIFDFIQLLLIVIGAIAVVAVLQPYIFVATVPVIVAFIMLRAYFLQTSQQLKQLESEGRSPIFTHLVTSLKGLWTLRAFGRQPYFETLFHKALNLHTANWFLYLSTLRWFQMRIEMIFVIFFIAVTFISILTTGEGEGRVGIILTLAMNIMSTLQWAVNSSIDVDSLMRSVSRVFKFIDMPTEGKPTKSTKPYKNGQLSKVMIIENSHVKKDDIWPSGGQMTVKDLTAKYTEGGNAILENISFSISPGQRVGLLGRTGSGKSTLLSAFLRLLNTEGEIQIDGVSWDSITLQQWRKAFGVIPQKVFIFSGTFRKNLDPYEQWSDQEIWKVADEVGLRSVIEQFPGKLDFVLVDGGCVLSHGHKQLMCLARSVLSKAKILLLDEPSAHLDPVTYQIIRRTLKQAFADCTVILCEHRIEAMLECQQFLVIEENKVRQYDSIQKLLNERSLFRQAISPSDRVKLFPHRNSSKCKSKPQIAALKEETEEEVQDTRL
T1 sequence (P13569 423-646 limits assumed): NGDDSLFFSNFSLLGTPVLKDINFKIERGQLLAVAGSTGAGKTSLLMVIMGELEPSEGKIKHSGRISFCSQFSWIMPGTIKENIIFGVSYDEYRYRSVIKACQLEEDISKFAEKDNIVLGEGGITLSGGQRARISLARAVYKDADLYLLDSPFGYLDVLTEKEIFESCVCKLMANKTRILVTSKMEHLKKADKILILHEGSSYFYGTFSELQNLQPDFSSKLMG

Compound	DSLS 3D (100 μM ΔT) (NBD1)	TECC (AUC, 10 μM) (CFTR)
Cn1nc2nc1-c1cc(ccn1)[S+]([O-])c1c(F)cc3[nH]ccc3c1CCS(=O)(=O)CC(C)(C)CCC[C@]2(C)c1cccc(CC(=O)O)c1 (single isomer, unassigned) [Compound 249B]	C (a value greater than 10 °C and less than or equal to 25 °C is marked “C”)	B (a value between 12-20 is marked “B”)
Cn1nc2nc1-c1cc(ccn1)[S+]([O-])c1c(F)cc3[nH]ccc3c1CCS(=O)(=O)CC(C)(C)CCC[C@]2(C)c1cccc(CCO)c1 (single isomer, unassigned) [Compound 250]	C (a value greater than 10 °C and less than or equal to 25 °C is marked “C”)	C (a value between 20 and 80 is marked “C”)
C[C@@H](Cc1cccc([C@@]2(C)CCCC(C)(C)CS(=O)(=O)CCc3c(c(F)cc4[nH]ccc34)C(O)c3ccnc(c3)-c3nc2nn3C)c1)C(=O)O (single isomer, unassigned) [Compound 255A]	B (a value above 5 °C and less than or equal to 10 °C is marked “B”)	A (a TECC value less than 12 is marked “A”)
C[C@@H](Cc1cccc([C@@]2(C)CCCC(C)(C)CS(=O)(=O)CCc3c(c(F)cc4[nH]ccc34)C(O)c3ccnc(c3)-c3nc2nn3C)c1)C(=O)O (single isomer, unassigned) [Compound 255B]	C (a value greater than 10 °C and less than or equal to 25 °C is marked “C”)	C (a value between 20 and 80 is marked “C”)
Cn1nc2nc1-c1cc(ccn1)[S+]([O-])c1c(F)cc3[nH]ccc3c1CCS(=O)(=O)CC(C)(C)CCC[C@]2(C)c1cccc(CCC(=O)O)c1F (single isomer, unassigned) [Compound 260A]	C (a value greater than 10 °C and less than or equal to 25 °C is marked “C”)	C (a value between 20 and 80 is marked “C”)
Cn1nc2nc1-c1cc(ccn1)[S+]([O-])c1c(F)cc3[nH]ccc3c1CCS(=O)(=O)CC(C)(C)CCC[C@]2(C)c1cccc(CCC(=O)O)c1F (single isomer, unassigned) [Compound 260B]	B (a value above 5 °C and less than or equal to 10 °C is marked “B”)	A (a TECC value less than 12 is marked “A”)
C[C@@H](Cc1cccc(C2(C)CCCCCS(=O)(=O)CCc3c(c(F)cc4[nH]ccc34)Oc3ccnc(c3)-c3nc2nn3C)c1)C(=O)O (single isomer, unassigned) [Compound 261A]	C (a value greater than 10 °C and less than or equal to 25 °C is marked “C”)	C (a value between 20 and 80 is marked “C”)
C[C@@H](Cc1cccc(C2(C)CCCCCS(=O)(=O)CCc3c(c(F)cc4[nH]ccc34)Oc3ccnc(c3)-c3nc2nn3C)c1)C(=O)O (single isomer, unassigned) [Compound 261B]	A (an ΔTagg value less than or equal to 5 °C is marked “A”)	A (a TECC value less than 12 is marked “A”)
C[C@@H](O)Cc1cccc([C@@]2(C)CCCC(C)(C)CS(=O)(=O)CCc3c(c(F)cc4[nH]ccc34)[S+]([O-])c3ccc(F)c(c3)-c3nc2nn3C)c1 (single isomer, unassigned) [Compound 264]	C (a value greater than 10 °C and less than or equal to 25 °C is marked “C”)	C (a value between 20 and 80 is marked “C”)
C[C@@H](Cc1cccc(C2(C)CCCC(C)(C)CS(=O)(=O)CCc3c(c(F)cc4[nH]ccc34)Oc3ccnc(c3)-c3nc2nn3C)n1)C(=O)O (single isomer, unassigned) [Compound 266A]	A (an ΔTagg value less than or equal to 5 °C is marked “A”)	A (a TECC value less than 12 is marked “A”)
C[C@@H](Cc1cccc(C2(C)CCCC(C)(C)CS(=O)(=O)CCc3c(c(F)cc4[nH]ccc34)Oc3ccnc(c3)-c3nc2nn3C)n1)C(=O)O (single isomer, unassigned) [Compound 266B]	C (a value greater than 10 °C and less than or equal to 25 °C is marked “C”)	C (a value between 20 and 80 is marked “C”)
C[C@H](Cc1cccc([C@@]2(C)CCCC(C)(C)CS(=O)(=O)CCc3c(c(F)c(F)c4[nH]ccc34)[S+]([O-])c3ccnc(c3)-c3nc2nn3C)c1)C(=O)O (single isomer, unassigned) [Compound 269]	C (a value greater than 10 °C and less than or equal to 25 °C is marked “C”)	C (a value between 20 and 80 is marked “C”)
Cn1nc2nc1-c1cc(ccn1)[S+]([O-])c1c(F)cc3[nH]ccc3c1CCS(=O)(=O)CC(C)(C)CCC[C@]2(C)c1cccc(CC2(C(=O)O)CC2)c1 (single isomer, unassigned) [Compound 271]	C (a value greater than 10 °C and less than or equal to 25 °C is marked “C”)	C (a value between 20 and 80 is marked “C”)
Cn1nc2nc1-c1cc(ccn1)[S+]([O-])c1c(F)c(F)c3[nH]ccc3c1CCS(=O)(=O)CC(C)(C)CCC[C@]2(C)c1cccc(CC(C)(C)C(=O)O)c1 (single isomer, unassigned) [Compound 274]	C (a value greater than 10 °C and less than or equal to 25 °C is marked “C”)	C (a value between 20 and 80 is marked “C”)
Cn1nc2nc1-c1cc(ccn1)[S+]([O-])c1c(F)c(F)c3[nH]ccc3c1CCS(=O)(=O)CC(C)(C)CCC[C@]2(C)c1cccc(CCC(=O)O)c1 (single isomer, unassigned) [Compound 281]	C (a value greater than 10 °C and less than or equal to 25 °C is marked “C”)	C (a value between 20 and 80 is marked “C”)
COCC(Cc1cccc([C@@]2(C)CCCC(C)(C)CS(=O)(=O)CCc3c(c(F)cc4[nH]ccc34)Oc3ccnc(c3)-c3nc2nn3C)c1)C(=O)O (single isomer, unassigned) [Compound 284]	C (a value greater than 10 °C and less than or equal to 25 °C is marked “C”)	C (a value between 20 and 80 is marked “C”)
COCC(Cc1cccc([C@@]2(C)CCCC(C)(C)CS(=O)(=O)CCc3c(c(F)cc4[nH]ccc34)Oc3ccnc(c3)-c3nc2nn3C)c1)C(=O)O (single isomer, unassigned) [Compound 285]	C (a value greater than 10 °C and less than or equal to 25 °C is marked “C”)	C (a value between 20 and 80 is marked “C”)
Cn1nc2nc1-c1cc(ccn1)[S+]([O-])c1c(F)c(F)c3[nH]ccc3c1CCS(=O)(=O)CC(C)(C)CCC[C@]2(C)c1cccc(CC(O)CO)c1 (stereo in doubt) [Compound 292, (2R)-3-[3-[(6R)-21,22-difluoro-3,6,10,10-tetramethyl-12,12,24-trioxo-12λ6,24λ4-dithia-3,4,19,28,30-pentazapentacyclo[23.3.1.12,5.015,23.016,20]triaconta-1(29),2(30),4,15,17,20,22,25,27-nonaen-6-yl]phenyl]propane-1,2-diol]	C (a value greater than 10 °C and less than or equal to 25 °C is marked “C”)	C (a value between 20 and 80 is marked “C”)
Cn1nc2nc1-c1cc(ccc1F)Oc1c(F)cc3[nH]ccc3c1CCS(=O)(=O)CC(C)(C)CCCC2(C)c1cccc(CC(=O)O)c1 (stereo not drawn) [Compound 3, 2-[3-(22,28-Difluoro-3,6,10,10-tetramethyl-12,12-dioxo-24-oxa-12λ^6-thia-3,4,19,30-tetrazapentacyclo[23.3.1.1^2,5.0^15,23.0^16,20]triaconta-1(29),2(30),4,15,17,20,22,25,27-nonaen-6-yl)phenyl]acetic Acid]	C (a value greater than 10 °C and less than or equal to 25 °C is marked “C”)	B (a value between 12-20 is marked “B”)
Cn1nc2nc1-c1cc(ccc1F)Oc1c(F)cc3[nH]ccc3c1CCS(=O)(=O)CC(C)(C)CCCC2(C)c1cccc(CC2(C(=O)O)CC2)c1 (stereo not drawn) [Compound 14, 1-[[3-(22,28-difluoro-3,6,10,10-tetramethyl-12,12-dioxo-24-oxa-12lambda6-thia-3,4,19,30-tetrazapentacyclo[23.3.1.12,5.015,23.016,20]triaconta-1(29),2(30),4,15,17,20,22,25,27-nonaen-6-yl)phenyl]methyl]cyclopropanecarboxylic Acid]	C (a value greater than 10 °C and less than or equal to 25 °C is marked “C”)	B (a value between 12-20 is marked “B”)
CC(Oc1cccc(C2(C)CCCC(C)(C)CS(=O)(=O)CCc3c(c(F)cc4[nH]ccc34)Oc3ccc(F)c(c3)-c3nc2nn3C)c1)C(=O)O (stereo not drawn) [Compound 19B, 2-[3-[22,28-difluoro-3,6,10,10-tetramethyl-12,12-dioxo-24-oxa-12 6-thia-3,4,19,30-tetrazapentacyclo[23.3.1.12,5.015,23.016,20]triaconta-1(29),2(30),4,15,17,20,22,25,27-nonaen-6-yl]phenoxy]propanoic Acid]	A (an ΔTagg value less than or equal to 5 °C is marked “A”)	A (a TECC value less than 12 is marked “A”)
